We go through 17 compounds from patent publication US4719223A, “Imidazolethiol dopamine-beta-hydroxylase inhibitors” (SmithKline Beckman Corporation, priority 1985, dated 1988).

Data set [1] deals with T1, dopamine-β-hydroxylase (DBH) (Bos taurus, UniProt P15101).
T1 sequence (P15101 1-610): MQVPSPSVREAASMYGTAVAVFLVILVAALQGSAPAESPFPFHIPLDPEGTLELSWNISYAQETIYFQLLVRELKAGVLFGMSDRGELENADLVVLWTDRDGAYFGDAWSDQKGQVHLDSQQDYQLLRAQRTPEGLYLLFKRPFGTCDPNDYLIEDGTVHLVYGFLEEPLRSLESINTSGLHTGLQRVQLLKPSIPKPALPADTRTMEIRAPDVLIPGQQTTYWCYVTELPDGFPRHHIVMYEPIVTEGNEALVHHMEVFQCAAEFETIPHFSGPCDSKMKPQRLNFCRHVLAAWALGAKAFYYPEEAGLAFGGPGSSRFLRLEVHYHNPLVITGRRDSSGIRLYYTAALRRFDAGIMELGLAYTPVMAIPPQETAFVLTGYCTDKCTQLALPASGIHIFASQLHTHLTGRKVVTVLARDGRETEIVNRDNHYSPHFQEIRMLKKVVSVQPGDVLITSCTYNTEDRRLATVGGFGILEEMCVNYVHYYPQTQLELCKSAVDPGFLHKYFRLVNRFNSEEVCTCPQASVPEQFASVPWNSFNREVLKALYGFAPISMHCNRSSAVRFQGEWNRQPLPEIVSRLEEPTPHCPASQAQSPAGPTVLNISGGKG
Put plainly: in vitro DBH inhibition (conversion of tyramine to octopamine, absorbance at 330 nm). It counts as biochemical. The settings on record: for DBH inhibiting activity: phenolic hydroxy group replaced by isostere. As to the method: Because the compounds of Formula I inhibit DBH activity, they have therapeutic value as diuretic, natriuretic, cardiotonic, antihypertensive and vasodilator agents, as well as antiulcerogenic and anti-Parkinsonian agents. Listed in Table I are the compounds of the invention that were tested for in vitro DBH inhibition by a standard procedure for assaying conversion of tyramine to octopamine in the presence of DBH. J. J. Pisano, et al., Biochim. Biophys. Acta; 43, […] (1960). Octopamine was assayed following sodium periodate oxidation to p-hydroxybenzaldehyde by measuring spectrophotometric absorbance at 330 nm. In Table I, inhibition is given in molar concentration of compound at which DBH activity was halved (IC50). Melting points (mp) are given in °C.
This testing was performed using compounds prepared by substituting various phenolic isosteres for the phenolic hydroxy group of another DBH inhibitor, 1-(3',5'-difluoro-4'-hydroxybenzyl)imidazole-2-thiol (U.S. patent application Ser. No. 590,665, filed Mar. 19, 1984).

The conditions of data set [2]: Ehrreich et al. 1976; cited from earlier work.
Data set [3] concerns DBH. The settings on record: cited from earlier work; for DBH inhibition: literature reports; for mode of DBH inhibition: apparent, phenethylamine analogues.
Data set [4] is described as follows: mean arterial blood pressure in spontaneously hypertensive rats. The class given is in vivo. To be noted: 50 mg/kg intraperitoneally; 15 min. As to the method: Further, spontaneously hypertensive rats were dosed with a suspension or solution of 1-(4'-amino-3',5'-difluorobenzyl)imidazole-2-thiol at a dose of 50 mg/kg intraperitoneally, and mean arterial blood pressure was monitored for 260 minutes using indwelling cannulae positioned in the tail arteries. Approximate forty percent reductions in blood pressure were observed fifteen minutes following administration of this compound. At 260 minutes after administration of this compound, blood pressure remained reduced by approximately ten percent when compared to vehicle-treated controls.

Data set [5] deals with peripheral dopamine (DA) and norepinephrine (NE) levels. Put plainly: in vivo effect on peripheral dopamine (DA) and norepinephrine (NE) levels. The settings on record: 50 mg/kg orally, twice, about 18 h apart, sacrificed about 2 h after second dose; for DA/NE Ratio / DA: p < 0.001; for NE / DA: μg per gram of tissue. The arrangement: species or system spontaneously hypertensive rats. On the procedure:
One of the compounds of the invention was tested for its effect in vivo on peripheral dopamine (DA) and norepinephrine (NE) levels substantially by the procedure of DaPrada and Zurcher, Life Sciences, 19, 1161, (1976). Groups of five spontaneously hypertensive rats were dosed orally, twice, the second dose approximately 18 hours after the first, and were sacrificed about 2 hours after the second dose.

For data set [6] the following is noted: Teresawa et al. 1971; cited from earlier work.
Data set [7] has as its system DBH. The settings on record: Friedman et al. 1978; significance uncertain; cited from earlier work.
Setting [8] is: in vitro, tyramine to octopamine, read-out: IC50 (molar concentration of compound at which DBH activity was halved).

Like-named read-outs stand apart in the source and are kept apart here.

As to `O=C(Nc1c(F)cc(Cn2ccnc2S)cc1F)C(F)(F)F` [--NHCOCF3], in data set [1] (in vitro), the DBH inhibiting activity entry is given as “devoid of DBH inhibiting activity”.
With `CS(=O)(=O)Cc1c(F)cc(Cn2ccnc2S)cc1F` [--CH2 SO2 CH3], the DBH inhibiting activity result in data set [1] (in vitro) was “devoid of DBH inhibiting activity”.
`Oc1c(F)cc(Cn2cc[nH]c2=S)cc1F` [1-(3',5'-difluoro-4'-hydroxybenzyl)imidazole-2-thiol]: the IC50 in data set [1] (comparison compound of U.S. patent application Ser. No. 590,665, read-out: IC50 of comparison DBH inhibitor) was determined as 0.08 µM.
`CCCCc1ccc(C(N)=O)nc1` [Bupicomide, 5-(n-butyl)picolinamine]: the antihypertensive activity entry in data set [2] is “antihypertensive activity”. The DBH inhibition result with DBH [3] is “DBH inhibitor”.
Consider `NNCc1ccccc1` [benzylhydrazine], for which the “mode of DBH inhibition” value with DBH [3] is reported as “competitive inhibitors”.
Turning to `NS(=O)(=O)Nc1c(F)cc(Cn2ccnc2S)cc1F` [--NHSO2 NH2], the DBH inhibiting activity result in data set [1] (in vitro) is on record as “devoid of DBH inhibiting activity”.
On to `Nc1c(Cl)cc(Cn2ccnc2S)cc1Cl` [1-(4'-amino-3',5'-dichlorobenzyl)imidazole-2-thiol], for which, in data set [1] (setting [8]), the IC50 is 3.1 µM.
As to `Nc1c(F)cc(Cn2ccnc2S)cc1F` [1-(4'-amino-3',5'-difluorobenzyl)imidazole-2-thiol], in data set [1] (setting [8]), the IC50 was 1.2 µM. For the same compound, in data set [4], the “reduction in blood pressure, fifteen minutes after administration” value is recorded as “forty”. Further, in data set [5], the “DA/NE Ratio” value came to 0.151, the NE is 5.53 µg/g and the DA came to 0.821 µg/g.
For the compound `O=C(O)c1ccc(CCCCCl)cn1` [5-(4-chlorobutyl)picolinic acid], the DBH inhibition entry with DBH [3] was “inhibit DBH”.
Consider `NOCc1ccccc1` [Benzyloxyamine, benzyloxyamine], for which, in the data set on DBH [3], the “mode of DBH inhibition” value is “competitive inhibitors”.
Turning to `CCCCc1ccc(C(=O)O)nc1` [Fusaric acid], the hepatotoxicity result in data set [6] is given as “hepatotoxic”. Also, in data set [5], the “DA/NE Ratio” value was determined as 0.0937, the NE came to 5.63 µg/g and the DA is 0.529 µg/g.
In the case of `C[C@](N)(Cc1ccc(O)c(O)c1)C(=O)O` [alpha-methyl-DOPA], the “DBH levels in treated patients” value in the data set on DBH [7] is “lowered DBH levels”.
Regarding `O=C(O)c1ccc(CCC(Br)CBr)cn1` (stereo not shown) [5-(3,4-dibromobutyl)picolinic acid], in the data set on DBH [3], the DBH inhibition entry is on record as “DBH inhibitors”.
On to `CN(C)C(=S)SCc1ccc(C(=O)O)nc1` [5-(dimethyldithiocarbamoyl)methylpicolinic acid], for which, in the data set with DBH [3], the DBH inhibition result was “DBH inhibitors”.
As for phenylpicolinic acid, the “DBH inhibitory activity relative to fusaric acid” value in the data set with DBH [3] (Runti et al. 1980) is recorded as “twice the inhibitory activity of fusaric acid”.
`O=CNc1c(F)cc(Cn2ccnc2S)cc1F` [--NHCHO]: the DBH inhibiting activity result in data set [1] (in vitro) was “devoid of DBH inhibiting activity”.
As for `COC(=O)[C@H]1[C@H]2C[C@@H]3c4[nH]c5cc(OC)ccc5c4CCN3C[C@H]2C[C@@H](OC(=O)c2cc(OC)c(OC)c(OC)c2)[C@@H]1OC` [reserpine], the “DBH levels in treated patients” value in the data set on DBH [7] is “lowered DBH levels”.
